Experiments:
[1] = test system: ARH-77 cells; assay: Cell viability assay (CellTiter-Glo), ARH-77; type: cell-based; conditions: Homo sapiens, ARH-77, 24 hours incubation, 1% FBS, read-out: Average pIC50 by molecule ARH-77 (converted)
Excerpt: (§1) The effect of various compounds of the invention on the viability of OPM-2, MV-4-11 and ARH-77 cell lines was investigated, using the CTG protocol described below.
(§2) OPM-2 and MV-4-11 cell lines are derived from multiple myeloma and acute myeloid leukaemia, respectively. Both cell lines are described in the literature as MCL-1 dependent lines, as opposed to lymphoblast-like ARH-77 cell line, which is described as independent of MCL-1 (Tron A E et al. Nat Commun. 2018; 9: 5341; Caenepeel S et al. Cancer Discov. 2018 December; 8(12):1582-1597).
(§3) Cells (OPM-2, MV-4-11 or ARH-77) were seeded on […] in a growth medium with FBS reduced to 1%. Next, compound stocks were pre-diluted in DMSO and added directly to the cells growth medium (final DMSO concentration: 0.5%). Compound concentrations used in this assay: 1/3 dilutions starting at 30 uM (9 to 12 points).
(§4) After 24 hours of incubation, cell viability was evaluated using CellTiter-Glo Luminescent Cell Viability Assay (Promega, cat #G7572). Luminescence signal was measured using a CLARIOstar Plus Multi-Mode Microplate Reader (574-590 nm).
(§5) Results were normalized to DMSO control.

[2] = test system: MV-4-11 cells; assay: Cell viability assay (CellTiter-Glo), MV-4-11; type: cell-based; conditions: Homo sapiens, MV4-11, 24 hours incubation, 1% FBS, read-out: Average pIC50 by molecule MV-4-11 (converted)
Excerpt: as §1, §2, §3, §4, §5

[3] = target: [MCL-1]-[compound of formula (I)]-[CRBN/DDB1] complex (Homo sapiens, UniProt Q07820+Q96SW2); assay: AlphaLISA dose response ternary complex formation assay; type: binding; conditions: read-out: AlphaLISA dose response Average pEC50 by molecule (converted)
Protocol: The effect of the bifunctional compounds of the invention on the formation of a ternary complex composed of [MCL-1]-[compound of formula (I)]-[CRBN/DDB1] was investigated with two methods: AlphaLISA dose response assay or HTRF ternary complex assay.
Two types of protein solution were prepared: • 40 nM biotinylated hMCL-1, 40 μg/ml AlphaScreen Streptavidin-coated Donor Beads in PBS buffer with 0.1% Tween-20 and 1 mM DTT, • 200 nM 6×His-CRBN/Strep-DDB1, 40 μg/ml AlphaLISA Anti-6×His Acceptor beads in PBS buffer with 0.1% Tween-20 and 1 mM DTT.
The prepared solutions were incubated at room temperature for 45 min and then the solution containing the donor beads was mixed with the solution containing the acceptor beads.
The tested compounds were dispensed onto a white 384-well AlphaPlate 384 SW. DMSO was backfilled to all wells, resulting in a final DMSO content of 2%. Wells containing only DMSO served as background. Next, 10 μl of solution with donor and acceptor beads was added to the wells.
The plate was sealed with transparent film and shaken using a VibroTurbulator for 60 see at room temperature, level 3. The plate was then spun down shortly (10 s, 1000 rcf, room temperature) and incubated at 25° C. for 30 min.
The read-out was performed with PerkinElmer Enspire Multimode Plate Reader (method for AlphaLISA 384-well low volume, Filterset: λexc=680 nm, λem=615 nm).
The results were analyzed as follows: • 1) an average of luminescence for background signal was calculated and used as a negative control; • 2) average of the maximum measured luminescence for 233 was calculated and used as an internal positive control; • 3) raw luminescence values were normalized against positive and negative controls; • 4) concentration points above the hook point were excluded; • 5) EC50 and pEC50 values were determined.

[MCL-1]-[compound of formula (I)]-[CRBN/DDB1] complex, sequence (Q07820 whole entry): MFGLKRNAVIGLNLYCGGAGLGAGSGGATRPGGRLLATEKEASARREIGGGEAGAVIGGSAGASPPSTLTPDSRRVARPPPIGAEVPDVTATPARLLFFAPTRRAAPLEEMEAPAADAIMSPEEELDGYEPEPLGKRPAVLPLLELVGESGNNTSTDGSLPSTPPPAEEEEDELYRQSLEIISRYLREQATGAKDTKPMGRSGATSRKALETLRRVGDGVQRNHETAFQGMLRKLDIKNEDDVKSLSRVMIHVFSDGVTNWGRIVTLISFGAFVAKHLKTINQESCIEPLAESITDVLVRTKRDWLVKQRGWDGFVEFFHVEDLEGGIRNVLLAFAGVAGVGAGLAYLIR
[MCL-1]-[compound of formula (I)]-[CRBN/DDB1] complex, sequence (Q96SW2 whole entry): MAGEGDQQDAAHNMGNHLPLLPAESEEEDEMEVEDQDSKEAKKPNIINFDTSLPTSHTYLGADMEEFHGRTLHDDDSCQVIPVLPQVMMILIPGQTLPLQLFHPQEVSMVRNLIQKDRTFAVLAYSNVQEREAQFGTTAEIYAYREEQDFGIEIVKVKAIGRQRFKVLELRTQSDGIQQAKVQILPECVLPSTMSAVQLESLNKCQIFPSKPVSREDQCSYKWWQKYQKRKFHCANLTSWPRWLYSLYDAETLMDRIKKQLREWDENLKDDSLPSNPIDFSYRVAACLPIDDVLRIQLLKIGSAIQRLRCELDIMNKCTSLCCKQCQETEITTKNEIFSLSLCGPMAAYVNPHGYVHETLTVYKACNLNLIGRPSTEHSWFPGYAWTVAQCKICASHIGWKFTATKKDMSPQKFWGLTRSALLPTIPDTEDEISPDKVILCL
[MCL-1]-[compound of formula (I)]-[CRBN/DDB1] complex, sequence (Q16531 whole entry partner): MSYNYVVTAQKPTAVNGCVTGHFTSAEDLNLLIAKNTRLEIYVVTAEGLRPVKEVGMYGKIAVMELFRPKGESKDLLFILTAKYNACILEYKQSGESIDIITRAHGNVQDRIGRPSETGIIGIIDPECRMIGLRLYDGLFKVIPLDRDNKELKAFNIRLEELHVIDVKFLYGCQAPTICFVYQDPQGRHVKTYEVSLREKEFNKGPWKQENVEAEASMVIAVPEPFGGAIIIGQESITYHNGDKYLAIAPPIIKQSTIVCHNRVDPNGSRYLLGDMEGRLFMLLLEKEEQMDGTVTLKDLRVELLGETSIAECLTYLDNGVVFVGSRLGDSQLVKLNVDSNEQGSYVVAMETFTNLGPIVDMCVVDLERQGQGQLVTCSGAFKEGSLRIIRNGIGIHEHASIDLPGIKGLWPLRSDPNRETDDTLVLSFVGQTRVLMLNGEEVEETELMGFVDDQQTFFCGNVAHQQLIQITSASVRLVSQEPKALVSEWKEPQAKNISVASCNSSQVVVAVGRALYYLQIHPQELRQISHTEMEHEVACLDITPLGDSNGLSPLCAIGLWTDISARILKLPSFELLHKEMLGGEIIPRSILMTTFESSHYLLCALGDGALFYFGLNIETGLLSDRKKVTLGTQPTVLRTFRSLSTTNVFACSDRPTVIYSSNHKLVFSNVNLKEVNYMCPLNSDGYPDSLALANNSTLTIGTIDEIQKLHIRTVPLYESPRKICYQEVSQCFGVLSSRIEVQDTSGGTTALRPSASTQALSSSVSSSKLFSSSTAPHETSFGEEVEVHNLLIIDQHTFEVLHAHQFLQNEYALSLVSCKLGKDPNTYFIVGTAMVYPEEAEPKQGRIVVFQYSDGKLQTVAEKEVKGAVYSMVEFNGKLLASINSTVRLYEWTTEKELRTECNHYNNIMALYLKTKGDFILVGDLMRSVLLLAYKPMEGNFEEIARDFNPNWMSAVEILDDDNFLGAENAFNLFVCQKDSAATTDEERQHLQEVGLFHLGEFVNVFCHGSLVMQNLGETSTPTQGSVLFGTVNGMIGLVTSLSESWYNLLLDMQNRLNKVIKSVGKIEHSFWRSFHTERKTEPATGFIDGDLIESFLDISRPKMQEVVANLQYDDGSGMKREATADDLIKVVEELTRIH

Row | Compound | IC50 [2] [nM] | EC50 [3] [nM] | IC50 [1] [nM]
1 | Cc1nn(C)c(C)c1-c1c(Cl)ccc2c(CCCOc3cccc4cc(F)ccc34)c(C(=O)O)n(CCN3CCN(C(=O)[C@@H](C)Oc4cccc5c4C(=O)N([C@H]4CCC(=O)NC4=O)C5=O)CC3)c12 (single isomer, unassigned) [Compound 317] | ≤ 31.6 | < 100 | > 3160
2 | COc1cc(OCCCc2c(C(=O)O)n(CCN3CCN(C(=O)COc4cccc5c4C(=O)N(C4CCC(=O)NC4=O)C5=O)CC3)c3c(-c4c(C)nn(C)c4C)c(Cl)ccc23)c2ccccc2c1 (stereo not drawn) [Compound 218, 6-chloro-1-(2-(4-(2-((2-(2,6-dioxopiperidin-3-yl)-1,3-dioxoisoindolin-4-yl)oxy)acetyl)piperazin-1-yl)ethyl)-3-(3-((3-methoxynaphthalen-1-yl)oxy)propyl)-7-(1,3,5-trimethyl-1H-pyrazol-4-yl)-1H-indole-2-carboxylic acid] | ≤ 1000 | < 100 | > 10000
3 | Cc1nn(C)c(C)c1-c1c(Cl)ccc2c(CCCOc3cccc4ccccc34)c(C(=O)O)n(CCN3CCN(C(=O)COc4cccc5c4CN(C4CCC(=O)NC4=O)C5=O)C4CC43)c12 (stereo not drawn) [Compound 222, 6-chloro-1-{2-[5-(2-{[2-(2,6-dioxopiperidin-3-yl)-1-oxo-2,3-dihydro-1H-isoindol-4-yl]oxy}acetyl)-2,5-diazabicyclo[4.1.0]heptan-2-yl]ethyl}-3-[3-(naphthalen-1-yloxy)propyl]-7-(1,3,5-trimethyl-1H-pyrazol-4-yl)-1H-indole-2-carboxylic acid] | ≤ 316 | < 100 | > 10000
4 | Cc1nn(C)c(C)c1-c1c(Cl)ccc2c(CCCOc3cccc4ccccc34)c(C(=O)O)n(CCC3CCN(C(=O)COc4cccc5c4CN(C4CCC(=O)NC4=O)C5=O)CC3)c12 (stereo not drawn) [Compound 223, 6-chloro-1-{2-[1-(2-{[2-(2,6-dioxopiperidin-3-yl)-1-oxo-2,3-dihydro-1H-isoindol-4-yl]oxy}acetyl)piperidin-4-yl]ethyl}-3-[3-(naphthalen-1-yloxy)propyl]-7-(1,3,5-trimethyl-1H-pyrazol-4-yl)-1H-indole-2-carboxylic acid] | ≤ 316 | < 100 | > 10000
5 | Cc1nn(C)c(C)c1-c1c(Cl)ccc2c(CCCOc3cccc4ccccc34)c(C(=O)O)n(CC[N+]3([O-])CCN(C(=O)COc4cccc5c4CN(C4CCC(=O)NC4=O)C5=O)CC3)c12 (stereo not drawn) [Compound 224, 1-(2-(2-carboxy-6-chloro-3-(3-(naphthalen-1-yloxy)propyl)-7-(1,3,5-trimethyl-1H-pyrazol-4-yl)-1H-indol-1-yl)ethyl)-4-(2-((2-(2,6-dioxopiperidin-3-yl)-1-oxoisoindolin-4-yl)oxy)acetyl)piperazine 1-oxide] | ≤ 316 | < 100 | > 10000
6 | Cc1nn2c(c1-c1c(F)ccc3c(CCCOc4cccc5cc(F)ccc45)c(C(=O)O)n(CCN4CCN(C(=O)COc5cccc6c5CN(C5CCC(=O)NC5=O)C6=O)CC4)c13)CCC2 (stereo not drawn) [Compound 225, 1-(2-(4-(2-((2-(2,6-dioxopiperidin-3-yl)-1-oxoisoindolin-4-yl)oxy)acetyl)piperazin-1-yl)ethyl)-6-fluoro-3-(3-((6-fluoronaphthalen-1-yl)oxy)propyl)-7-(2-methyl-5,6-dihydro-4H-pyrrolo[1,2-b]pyrazol-3-yl)-1H-indole-2-carboxylic acid] | ≤ 316 | < 100 | > 10000
7 | Cc1nn2c(c1-c1c(F)ccc3c(CCCOc4cccc5cc(F)ccc45)c(C(=O)O)n(CCN4CCN(C(=O)COc5cccc6c5CN(C5CCC(=O)NC5=O)C6=O)CC4)c13)COCC2 (stereo not drawn) [Compound 226, 1-{2-[4-(2-{[2-(2,6-dioxopiperidin-3-yl)-1-oxo-2,3-dihydro-1H-isoindol-4-yl]oxy}acetyl)piperazin-1-yl]ethyl}-6-fluoro-3-{3-[(6-fluoronaphthalen-1-yl)oxy]propyl}-7-{2-methyl-4H,6H,7H-pyrazolo[3,2-c][1,4]oxazin-3-yl}-1H-indole-2-carboxylic acid] | ≤ 100 | < 100 | > 10000
8 | COc1ccc(C(=O)NC2CCC(=O)NC2=O)c2nc(C)n(CC(=O)N3CCN(CCn4c(C(=O)O)c(CCCOc5cccc6cc(F)ccc56)c5ccc(Cl)c(-c6c(C)nn(C)c6C)c54)CC3)c12 (stereo not drawn) [Compound 272, 6-Chloro-1-(2-(4-(2-(4-((2,6-dioxopiperidin-3-yl)carbamoyl)-7-methoxy-2-methyl-1H-benzo[d]imidazol-1-yl)acetyl)piperazin-1-yl)ethyl)-3-(3-((6-fluoronaphthalen-1-yl)oxy)propyl)-7-(1,3,5-trimethyl-1H-pyrazol-4-yl)-1H-indole-2-carboxylic acid] | ≤ 100 | < 100 | > 10000
9 | Cc1nc2c(NCC(=O)N3CCN(CCn4c(C(=O)O)c(CCCOc5cccc6cc(F)ccc56)c5ccc(Cl)c(-c6c(C)nn(C)c6C)c54)CC3)cccc2cc1C1CCC(=O)NC1=O (stereo not drawn) [Compound 284, 6-Chloro-1-{2-[4-(2-{[3-(2,6-dioxopiperidin-3-yl)-2-methylquinolin-8-yl]amino}acetyl)piperazin-1-yl]ethyl}-3-{3-[(6-fluoronaphthalen-1-yl)oxy]propyl}-7-(1,3,5-trimethyl-1H-pyrazol-4-yl)-1H-indole-2-carboxylic acid] | ≤ 100 | < 100 | > 3160

Now from value to compound, other results behind:

Row | IC50 [2] [nM] | EC50 [3] [nM] | Compound | IC50 [1] [nM]
10 | ≤ 100 | < 100 | Cc1nn(C)c(C)c1-c1c(Cl)ccc2c(CCCOc3cccc4cc(F)ccc34)c(C(=O)O)n(CCN3CCN(C(=O)Cn4c(C)nc5c(C(=O)NC6CCC(=O)NC6=O)ccc(Cl)c54)CC3)c12 (stereo not drawn) [Compound 271, 6-Chloro-1-(2-(4-(2-(7-chloro-4-((2,6-dioxopiperidin-3-yl)carbamoyl)-2-methyl-1H-benzo[d]imidazol-1-yl)acetyl)piperazin-1-yl)ethyl)-3-(3-((6-fluoronaphthalen-1-yl)oxy)propyl)-7-(1,3,5-trimethyl-1H-pyrazol-4-yl)-1H-indole-2-carboxylic acid] | > 10000
11 | ≤ 316 | < 10 | Cc1nn(C)c(C)c1-c1c(Cl)ccc2c(CCCOc3cccc4cc(F)ccc34)c(C(=O)O)n(CCN3CCN(C(=O)Cn4c(C)nc5c(C(=O)NC6CCC(=O)NC6=O)cc(Br)cc54)CC3)c12 (stereo not drawn) [Compound 273, 1-{2-[4-(2-{6-Bromo-4-[(2,6-dioxopiperidin-3-yl)carbamoyl]-2-methyl-1H-1,3-benzodiazol-1-yl}acetyl)piperazin-1-yl]ethyl}-6-chloro-3-{3-[(6-fluoronaphthalen-1-yl)oxy]propyl}-7-(1,3,5-trimethyl-1H-pyrazol-4-yl)-1H-indole-2-carboxylic acid] | > 10000
12 | ≤ 100 | < 10 | Cc1cc(C(=O)NC2CCC(=O)NC2=O)c2nc(C)n(CC(=O)N3CCN(CCn4c(C(=O)O)c(CCCOc5cccc6cc(F)ccc56)c5ccc(Cl)c(-c6c(C)nn(C)c6C)c54)CC3)c2c1 (stereo not drawn) [Compound 274, 6-Chloro-1-(2-(4-(2-(4-((2,6-dioxopiperidin-3-yl)carbamoyl)-2,6-dimethyl-1H-benzo[d]imidazol-1-yl)acetyl)piperazin-1-yl)ethyl)-3-(3-((6-fluoronaphthalen-1-yl)oxy)propyl)-7-(1,3,5-trimethyl-1H-pyrazol-4-yl)-1H-indole-2-carboxylic acid] | > 10000
13 | ≤ 100 | < 100 | Cc1nn(C)c(C)c1-c1c(Cl)ccc2c(CCCOc3cccc4cc(F)ccc34)c(C(=O)O)n(CCN3CCN(C(=O)Cn4c(C)nc5c(C(=O)NC6CCC(=O)NC6=O)cc(Cl)cc54)CC3)c12 (stereo not drawn) [Compound 276, 6-Chloro-1-(2-(4-(2-(6-chloro-4-((2,6-dioxopiperidin-3-yl)carbamoyl)-2-methyl-1H-benzo[d]imidazol-1-yl)acetyl)piperazin-1-yl)ethyl)-3-(3-((6-fluoronaphthalen-1-yl)oxy)propyl)-7-(1,3,5-trimethyl-1H-pyrazol-4-yl)-1H-indole-2-carboxylic acid] | > 10000
